The results in this text go back to patent publication EP1073451B1, “D[…] TREATING ISCHEMIA” (University of Kentucky Research Foundation, priority 1998, dated 2002).

The data set has as its system focal middle cerebral arterial occlusion (MCAO) ischemia. As to conditions: for infarct volume reduced compared to control animals: after 24 h of reperfusion; for infarct volume reduced compared to control animals / MABP, pO2, pCO2, pH or rectal temperature versus control animals: 4 mg/kg i.p. x4 prior to 1 h MCAO; for neurological deficits: behavior ranking 0 (normal) to 3 (severe), 4 mg/kg i.p. at 6.5 h, 4.5 h, 2.5 h and 0.5 h prior to ischemic injury, 1 h MCAO, mean ± SEM; for neurological deficits / infarct volume: n=8; for infarct volume: 4 mg/kg; for MABP, pO2, pCO2, pH or rectal temperature versus control animals: post ischemia.

With `CC(C)C[C@@H](NC(=O)[C@H](Cc1ccccc1)NC(=O)CNC(=O)[C@@H](C)NC(=O)[C@@H](N)Cc1ccc(O)cc1)C(=O)O` [DADLE, Tyr-D-Ala-Gly-Phe-D-Leu-enkephalin], the “infarct volume reduced compared to control animals” value came to 12%; the neurological deficits turned out to be 1.73 ± 0.20; the infarct volume came to 67 ± 9 mm^2; the “MABP, pO2, pCO2, pH or rectal temperature versus control animals” value is on record as “no significant differences”.

As to “Tyr-Ala-Phe-Asp-Val-Val-Gly-NH2 [deltorphin]”, the “infarct volume reduced compared to control animals” value was 42%; the neurological deficits was 0.44 ± 0.11; the infarct volume is 45 ± 10 mm^2; the “MABP, pO2, pCO2, pH or rectal temperature versus control animals” value is reported as “no significant differences”.
